Measurements taken from patent US20140315876A1, “BETA-LACTAMASE INHIBITORS” (priority 2013, published 2014).
Where a name gives a salt, the structure may show the parent alone.

System: bacterial strains that express the class D cephalosporinase OXA-15
Test: Synergy MIC / standard BLI potentiation MIC assay, strains expressing OXA-15
Type: cell-based, E. coli
Details: in the presence of a β-lactam; comparator Avibactam (comparator compound CCC)
Experimental: The experimental protocol was performed according to Clinical and Laboratory Standards Institute (CLSI) guidelines with modifications as described below (CLSI guidelines can be derived from the CLSI document M07-A9 published in January 2012: “Methods for Dilution Antimicrobial Susceptibility Tests for Bacteria That Grow Aerobically; Approved Standard-Ninth Edition”).
To prepare for MIC testing, frozen glycerol stocks of clinical isolates (Klebsiella pneumoniae, Eschericia coli, Enterobacter spp, Citrobacter spp, or Pseudomonas aeruginosa) were used to streak for isolated colonies on rich, non-selective, tryptic soy agar containing 5% sheep's blood (TSAB). Frozen glycerol stocks of laboratory engineered, isogenic E. coli strains, which contain cloned β-lactamase expressing plasmids were used to streak for isolated colonies on rich, selective LB agar supplemented with 25 μg/mL tetracycline to maintain the plasmid. All strains were incubated at 37° C. for 18-24 hrs.
On the day of testing, primary cultures were started by scraping off 5-10 colonies from the TSAB plates containing clinical strains or the tetracycline supplemented LB plates containing engineered strains. The clinical strain material was suspended in ˜5 mL of cation adjusted Mueller Hinton Broth (CAMHB) in 14 mL culture tubes. The engineered strain material was suspended in CAMHB (supplemented with 25 μg/mL tetracycline) in 14 mL culture tubes. All strains were incubated at 37° C. with aeration (200 rpm) for ˜2 hrs until the optical density at 600 nm (OD600) was ≧0.1.
The two compound components of the assay were each diluted in CAMHB and added to the 96-well broth microdilution assay plates. 50 μL of the β-lactam was added to each well of the assay plate in 2-fold dilutions with final concentrations ranging from 128 to 0.13 μg/mL. 25 μL of the BLI compound was added to all wells in the broth microdilution plates at a final concentration of 4 μg/mL. Inoculum cultures were prepared by standardizing the primary cultures to OD600=0.1 and then adding 20 μL of the adjusted primary culture per 1 mL CAMHB for clinical strains or CAMHB (supplemented with tetracycline at 100 μg/mL) for engineered strains, so that the final inoculum density was ˜10^5 colony forming units per milliliter. Diluted inoculum cultures were used to inoculate 25 μL per well in 96-well broth microdilution assay plates. The final volume of each well was 100 μL and contained a β-lactam at different concentrations, a BLI compound at 4 μg/mL concentration, the bacterial culture at an OD600 of approximately 0.001 and when necessary tetracycline at 25 μg/mL.
Plates were incubated for 18-20 hours at 37° C. with aeration (200 rpm). Following incubation, growth was confirmed visually placing plates over a viewing apparatus (stand with a mirror underneath) and then OD600 was measured using a SpectraMax 340PC384 plate reader (Molecular Devices, Sunnyvale, Calif.). Growth was defined as turbidity that could be detected with the naked eye or achieving minimum OD600 of 0.1. MIC values were defined as the lowest concentration producing no visible turbidity.
The synergy MIC (sMIC) assay determines the concentration of the BLI required to potentiate the activity of a fixed concentration of a β-lactam antibiotic against β-lactamase producing bacterial strains. The experimental protocol was performed according to Clinical and Laboratory Standards Institute (CLSI) guidelines with modifications as described below (CLSI guidelines can be derived from the CLSI document M07-A9 published in January 2012: “Methods for Dilution Antimicrobial Susceptibility Tests for Bacteria That Grow Aerobically; Approved Standard-Ninth Edition”). […]

Row | Structure (SMILES) | activity against bacterial strains that express the class D cephalosporinase OXA-15, compared with Avibactam
1 | N=C(N)NCc1nnc([C@@H]2CC[C@@H]3CN2C(=O)N3OS(=O)(=O)O)o1 [Compound 704, (2S,5R)-2-(5-(guanidinomethyl)-1,3,4-oxadiazol-2-yl)-7-oxo-1,6-diazabicyclo[3.2.1]octan-6-yl hydrogen sulfate] | more active than Avibactam
2 | Nc1nnc([C@@H]2CC[C@@H]3CN2C(=O)N3OS(=O)(=O)O)o1 [Compound 707, (2S,5R)-2-(5-amino-1,3,4-oxadiazol-2-yl)-7-oxo-1,6-diazabicyclo[3.2.1]octan-6-yl hydrogen sulfate] | more active than Avibactam
3 | N=C(N)N1CCC(c2nnc([C@@H]3CC[C@@H]4CN3C(=O)N4OS(=O)(=O)O)o2)CC1 [Compound 712, (2S,5R)-2-(5-(1-carbamimidoylpiperidin-4-yl)-1,3,4-oxadiazol-2-yl)-7-oxo-1,6-diazabicyclo[3.2.1]octan-6-yl hydrogen sulfate] | more active than Avibactam
4 | O=C1N2C[C@@H](CC[C@H]2c2nnc(N3CCNCC3)o2)N1OS(=O)(=O)O [Compound 713, (2S,5R)-7-oxo-2-(5-(piperazin-1-yl)-1,3,4-oxadiazol-2-yl)-1,6-diazabicyclo[3.2.1]octan-6-yl hydrogen sulfate] | more active than Avibactam
5 | N=C(N)NCCCc1nnc([C@@H]2CC[C@@H]3CN2C(=O)N3OS(=O)(=O)O)o1 [Compound 714, (2S,5R)-2-(5-(3-guanidinopropyl)-1,3,4-oxadiazol-2-yl)-7-oxo-1,6-diazabicyclo[3.2.1]octan-6-yl hydrogen sulfate] | more active than Avibactam
6 | NCC(O)c1nnc([C@@H]2CC[C@@H]3CN2C(=O)N3OS(=O)(=O)O)o1 (stereo partly drawn) [Compound 715, (2S,5R)-2-(5-(2-amino-1-hydroxyethyl)-1,3,4-oxadiazol-2-yl)-7-oxo-1,6-diazabicyclo[3.2.1]octan-6-yl hydrogen sulfate] | more active than Avibactam
7 | NCCNCCc1nnc([C@@H]2CC[C@@H]3CN2C(=O)N3OS(=O)(=O)O)o1 [Compound 716, (2S,5R)-2-(5-(2-((2-aminoethyl)amino)ethyl)-1,3,4-oxadiazol-2-yl)-7-oxo-1,6-diazabicyclo[3.2.1]octan-6-yl hydrogen sulfate] | more active than Avibactam
8 | NCC(N)c1nnc([C@@H]2CC[C@@H]3CN2C(=O)N3OS(=O)(=O)O)o1 (stereo partly drawn) [Compound 717, (2S,5R)-2-(5-(1,2-diaminoethyl)-1,3,4-oxadiazol-2-yl)-7-oxo-1,6-diazabicyclo[3.2.1]octan-6-yl hydrogen sulfate] | more active than Avibactam
9 | O=C1N2C[C@@H](CC[C@H]2c2nnc(C3CCNCC3)s2)N1OS(=O)(=O)O [Compound 719, (2S,5R)-7-oxo-2-(5-(piperidin-4-yl)-1,3,4-thiadiazol-2-yl)-1,6-diazabicyclo[3.2.1]octan-6-yl hydrogen sulfate] | more active than Avibactam
10 | O=C1N2C[C@@H](CC[C@H]2c2nnc(CC3CNC3)o2)N1OS(=O)(=O)O [Compound 725, (2S,5R)-2-(5-(azetidin-3-ylmethyl)-1,3,4-oxadiazol-2-yl)-7-oxo-1,6-diazabicyclo[3.2.1]octan-6-yl hydrogen sulfate] | more active than Avibactam
11 | NCC(O)Cc1nnc([C@@H]2CC[C@@H]3CN2C(=O)N3OS(=O)(=O)O)o1 (stereo partly drawn) [Compound 733, (2S,5R)-2-(5-(3-amino-2-hydroxypropyl)-1,3,4-oxadiazol-2-yl)-7-oxo-1,6-diazabicyclo[3.2.1]octan-6-yl hydrogen sulfate] | more active than Avibactam
12 | N=C(N)N[C@H]1C[C@H](c2nnc([C@@H]3CC[C@@H]4CN3C(=O)N4OS(=O)(=O)O)o2)C1 [Compound 748, (2S,5R)-2-(5-((1r,3S)-3-guanidinocyclobutyl)-1,3,4-oxadiazol-2-yl)-7-oxo-1,6-diazabicyclo[3.2.1]octan-6-yl hydrogen sulfate] | more active than Avibactam
13 | N[C@H]1C[C@H](NCc2nnc([C@@H]3CC[C@@H]4CN3C(=O)N4OS(=O)(=O)O)o2)C1 [Compound 757, (2S,5R)-2-(5-((((1r,3S)-3-aminocyclobutyl)amino)methyl)-1,3,4-oxadiazol-2-yl)-7-oxo-1,6-diazabicyclo[3.2.1]octan-6-yl hydrogen sulfate] | more active than Avibactam
14 | O=C1N2C[C@@H](CC[C@H]2c2nnc(CNC3CCNCC3)o2)N1OS(=O)(=O)O [Compound 769, (2S,5R)-7-oxo-2-(5-((piperidin-4-ylamino)methyl)-1,3,4-oxadiazol-2-yl)-1,6-diazabicyclo[3.2.1]octan-6-yl hydrogen sulfate] | more active than Avibactam
15 | NC1CCN(c2nnc([C@@H]3CC[C@@H]4CN3C(=O)N4OS(=O)(=O)O)o2)CC1 [Compound 773, (2S,5R)-2-(5-(4-aminopiperidin-1-yl)-1,3,4-oxadiazol-2-yl)-7-oxo-1,6-diazabicyclo[3.2.1]octan-6-yl hydrogen sulfate] | more active than Avibactam
16 | O=C1N2C[C@@H](CC[C@H]2c2nnc([C@@H]3CNCCN3)o2)N1OS(=O)(=O)O [Compound 778, (2S,5R)-7-oxo-2-(5-((S)-piperazin-2-yl)-1,3,4-oxadiazol-2-yl)-1,6-diazabicyclo[3.2.1]octan-6-yl hydrogen sulfate] | more active than Avibactam
17 | N[C@H]1CC[C@@H](c2nnc([C@@H]3CC[C@@H]4CN3C(=O)N4OS(=O)(=O)O)o2)CC1 [Compound 780, (2S,5R)-2-(5-((1s,4R)-4-aminocyclohexyl)-1,3,4-oxadiazol-2-yl)-7-oxo-1,6-diazabicyclo[3.2.1]octan-6-yl hydrogen sulfate] | more active than Avibactam
18 | N[C@H]1CC[C@H](c2nnc([C@@H]3CC[C@@H]4CN3C(=O)N4OS(=O)(=O)O)o2)CC1 [Compound 781, (2S,5R)-2-(5-((1r,4S)-4-aminocyclohexyl)-1,3,4-oxadiazol-2-yl)-7-oxo-1,6-diazabicyclo[3.2.1]octan-6-yl hydrogen sulfate] | more active than Avibactam
19 | O=C1N2C[C@@H](CC[C@H]2c2nnc(CCCN3CCNCC3)o2)N1OS(=O)(=O)O [Compound 792, (2S,5R)-7-oxo-2-(5-(3-(piperazin-1-yl)propyl)-1,3,4-oxadiazol-2-yl)-1,6-diazabicyclo[3.2.1]octan-6-yl hydrogen sulfate] | more active than Avibactam
20 | O=C1N2C[C@@H](CC[C@H]2c2nnc(N3CCNCC3)s2)N1OS(=O)(=O)O [Compound 797, (2S,5R)-7-oxo-2-(5-(piperazin-1-yl)-1,3,4-thiadiazol-2-yl)-1,6-diazabicyclo[3.2.1]octan-6-yl hydrogen sulfate] | more active than Avibactam
